Test system: ADP-induced human platelet aggregation
Test: Inhibition of ADP-mediated platelet aggregation in vitro using platelet-rich plasma (PRP assay)
Type: cell-based
Conditions: 5 min; human platelet-rich plasma, 2 μM ADP, 96-well microtiter, OD 650 nm at 5 min; read-out: Activity in the PRP assay
Description: This Example Provides an Assay for the Inhibition of ADP-Mediated Platelet Aggregation In Vitro Using Platelet-Rich Plasma (PRP)
Platelet-rich plasma (PRP) is prepared by centrifugation at 160×g for 20 minutes at room temperature. PRP is collected, and the platelet concentration is determined using a Coulter counter or hemocytometer (platelet concentration should be 2-4×10^8 platelets per mL).
Inhibition of ADP-dependent aggregation is preferably determined in 96-well flat-bottom microtiter plates using a microtiter plate shaker and plate reader similar to the procedure described by Frantantoni et al., Am. J. Clin. Pathol. […] All steps are performed at room temperature. The total reaction volume of 0.2 mL/well includes: PRP (˜6×10^7 total platelets in the presence of plasma), serial dilutions of test compounds (buffer for control wells) in 0.6% DMSO. After about 5 minutes preincubation at room temperature, ADP is added to a final concentration of 2 μM which induces submaximal aggregation. Buffer is added instead of ADP to one set of control wells (ADP-control). The OD of the samples is then determined at 650 nm using a microtiter plate reader (Softmax, Molecular Devices, Menlo Park, Calif.) resulting in the 0 minute reading. The plates are then agitated for 5 min on a microtiter plate shaker and the 5 minute reading is obtained in the plate reader. Aggregation is calculated from the decrease of OD at 650 nm at t=5 minutes compared to t=0 minutes and is expressed as % of the decrease in the ADP control samples after correcting for changes in the unaggregated control samples.

| SMILES | IC50 [µM] |
| --- | --- |
| CNc1cc2ccn(-c3ccc(NC(=O)NS(=O)(=O)c4ccc(Cl)s4)c(OCCN(C)C)c3)c(=O)c2cc1F [Example 93, 5-chloro-N-[({2-[2-(dimethylamino)ethoxy]-4-[7-fluoro-6-(methylamino)-1-oxoisoquinolin-2(1H)-yl]phenyl}amino)carbonyl]thiophene-2-sulfonamide] | < 10 |
| CNc1cc2ccn(-c3ccc(NC(=O)NS(=O)(=O)c4ccc(Cl)s4)c(C4CC4)c3)c(=O)c2cc1F [Example 94, 5-chloro-N-[({2-cyclopropyl-4-[7-fluoro-6-(methylamino)-1-oxoisoquinolin-2(1H)-yl]phenyl}amino)carbonyl]thiophene-2-sulfonamide] | < 10 |
| CNc1cc2ccn(-c3ccc(NC(=O)NS(=O)(=O)c4ccc(Cl)s4)cc3C(F)(F)F)c(=O)c2cc1F [Example 95, 5-chloro-N-({[4-[7-fluoro-6-(methylamino)-1-oxoisoquinolin-2(1H)-yl]-3-(trifluoromethyl)phenyl]amino}carbonyl)thiophene-2-sulfonamide] | > 30 |
| CNc1cc2ccn(-c3cc(C)c(NC(=O)NS(=O)(=O)c4ccc(Cl)s4)c(C)c3)c(=O)c2cc1F [Example 96, 5-chloro-N-[({4-[7-fluoro-6-(methylamino)-1-oxoisoquinolin-2(1H)-yl]-2,6-dimethylphenyl}amino)carbonyl]thiophene-2-sulfonamide] | < 10 |
| CNc1cc2ccn(-c3ccc(NC(=O)NS(=O)(=O)c4ccc(Cl)s4)c(C(F)(F)F)c3)c(=O)c2cc1F [Example 97, 5-chloro-N-({[4-[7-fluoro-6-(methylamino)-1-oxoisoquinolin-2(1H)-yl]-2-(trifluoromethyl)phenyl]amino}carbonyl)thiophene-2-sulfonamide] | < 10 |
| CNc1cc2ccn(-c3ccc(NC(=O)NS(=O)(=O)c4ccc(Cl)s4)c(C(=O)OC)c3)c(=O)c2cc1F [Example 98, methyl 2-[({[(5-chlorothien-2-yl)sulfonyl]amino}carbonyl)amino]-5-[7-fluoro-6-(methylamino)-1-oxoisoquinolin-2(1H)-yl]benzoate] | < 10 |
| CNc1cc2ccn(-c3ccc(NC(=O)NS(=O)(=O)c4ccc(Cl)s4)c(C(=O)O)c3)c(=O)c2cc1F [Example 99, 2-[({[(5-chlorothien-2-yl)sulfonyl]amino}carbonyl)amino]-5-[7-fluoro-6-(methylamino)-1-oxoisoquinolin-2(1H)-yl]benzoic acid] | < 10 |
| CNc1cc2ccn(-c3cc(C)c(NC(=O)NS(=O)(=O)c4ccc(Cl)s4)c(C(C)C)c3)c(=O)c2cc1F [Example 100, 5-chloro-N-[({4-[7-fluoro-6-(methylamino)-1-oxoisoquinolin-2(1H)-yl]-2-isopropyl-6-methylphenyl}amino)carbonyl]thiophene-2-sulfonamide] | 10 to 30 |
| CNc1cc2ccn(-c3cc(C)c(NC(=O)NS(=O)(=O)c4ccc(Cl)s4)c(C(=O)OC)c3)c(=O)c2cc1F [Example 101, methyl 2-[({[(5-chlorothien-2-yl)sulfonyl]amino}carbonyl)amino]-5-[7-fluoro-6-(methylamino)-1-oxoisoquinolin-2(1H)-yl]-3-methylbenzoate] | < 10 |
| CNc1cc2ccn(-c3ccc(NC(=O)NS(=O)(=O)c4ccc(Cl)s4)c(S(C)(=O)=O)c3)c(=O)c2cc1F [Example 102, 5-chloro-N-({[4-[7-fluoro-6-(methylamino)-1-oxoisoquinolin-2(1H)-yl]-2-(methylsulfonyl)phenyl]amino}carbonyl)thiophene-2-sulfonamide] | > 30 |
| CNc1cc2ccn(-c3ccc(NC(=O)NS(=O)(=O)c4ccc(Cl)s4)c(Cl)c3)c(=O)c2cc1F [Example 103, 5-chloro-N-[({2-chloro-4-[7-fluoro-6-(methylamino)-1-oxoisoquinolin-2(1H)-yl]phenyl}amino)carbonyl]thiophene-2-sulfonamide] | < 10 |
| CNc1c(F)cc2c(=O)n(-c3ccc(NC(=O)NS(=O)(=O)c4ccc(Cl)s4)cc3)ccc2c1Br [Example 109, N-[({4-[5-bromo-7-fluoro-6-(methylamino)-1-oxoisoquinolin-2(1H)-yl]phenyl}amino)carbonyl]-5-chlorothiophene-2-sulfonamide] | > 30 |
| CNc1c(F)cc2c(=O)n(-c3ccc(NC(=O)NS(=O)(=O)c4ccc(Cl)s4)cc3)ccc2c1C#N [Example 118, 5-chloro-N-[({4-[5-cyano-7-fluoro-6-(methylamino)-1-oxoisoquinolin-2(1H)-yl]phenyl}amino)carbonyl]thiophene-2-sulfonamide] | 10 to 30 |
| CNc1c(F)cc2c(=O)n(-c3ccc(NC(=O)NS(=O)(=O)c4ccc(Cl)s4)cc3)ccc2c1C [Example 120, 5-chloro-N-[({4-[7-fluoro-5-methyl-6-(methylamino)-1-oxoisoquinolin-2(1H)-yl]phenyl}amino)carbonyl]thiophene-2-sulfonamide] | < 10 |

Reference: US7294635B2 (Portola Pharmaceuticals, Inc., priority 2003, dated 2007)
